Assay results published in BigSolDB 2.1.

Nc1ccccc1N
solubility (mole fraction)
Conditions | in acetonitrile | in ethanol | in methanol | in water
283.15 K | 0.0558 | 0.0139 | 0.0516 | 0.00447
285.65 K | 0.0595 | 0.0144 | 0.0533 | 0.00467
288.15 K | 0.0643 | 0.0148 | 0.0554 | 0.00495
290.65 K | 0.0685 | 0.0154 | 0.0572 | 0.00517
293.15 K | 0.0752 | 0.016 | 0.0596 | 0.00545
295.65 K | 0.0795 | 0.0165 | 0.0613 | 0.00573
298.15 K | 0.0858 | 0.0172 | 0.0637 | 0.00608
300.65 K | 0.0916 | 0.0177 | 0.0658 | 0.0064
303.15 K | 0.0987 | 0.0184 | 0.0685 | 0.00678
305.65 K | 0.104 | 0.019 | 0.0708 | 0.00717
308.15 K | 0.113 | 0.0199 | 0.0732 | 0.00762
310.65 K | 0.12 | 0.0205 | 0.0758 | 0.00803
313.15 K | 0.128 | 0.0213 | 0.0795 | 0.00855
315.65 K | 0.135 | 0.0221 | 0.0828 | 0.00923
318.15 K | 0.143 | 0.0233 | 0.0868 | 0.0102
